The target of experiment [1] is T1, TTK kinase domain (residues 519–808) (Homo sapiens, UniProt P33981).
T1 construct: TTK kinase domain (residues 519–808); inferred from Ni-NTA purification with imidazole elution; made in house; host or cells: E. coli BL21 AI
T1 sequence (P33981 519-808): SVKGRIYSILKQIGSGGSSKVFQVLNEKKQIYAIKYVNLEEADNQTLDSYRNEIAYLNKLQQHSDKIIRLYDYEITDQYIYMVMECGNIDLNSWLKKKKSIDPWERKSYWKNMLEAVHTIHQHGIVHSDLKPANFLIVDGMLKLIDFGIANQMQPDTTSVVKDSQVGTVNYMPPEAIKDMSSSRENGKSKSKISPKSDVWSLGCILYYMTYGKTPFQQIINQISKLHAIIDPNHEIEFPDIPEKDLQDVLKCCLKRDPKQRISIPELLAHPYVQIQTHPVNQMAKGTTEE
As to the kind of experiment: Soaking of apo TTK kinase domain crystals with inhibitor, X-ray crystallography. Type of experiment: binding. The note with it: crystals soaked with 10–50 mM compound for 24 h. An excerpt:
In recognition of the desirability of protein–ligand crystal structures to educate the efficient follow-up of fragment-like hit matter and our wish to determine the mode of binding of hits identified with the scaffold-focused virtual screen, we sought co-crystal structures of confirmed hits with TTK. To this end, apo crystals of TTK kinase domain were soaked in buffer solution containing the respective inhibitor (2–9). X-ray data were collected for all crystals, and the structures were solved using molecular replacement. We successfully obtained co-crystal structures of TTK with fragment-like hit compounds 3, 4, 5, and 7. […] A summary of crystallographic analysis is presented in Table 4, and the binding modes of compounds 3, 4, 5, and 7 are illustrated in Figure 7 with Fo–Fc electron density omit maps surrounding the ligand shown in green wire-mesh contoured at 3σ. In all four structures, the activation loop of TTK is disordered, possibly due to the presence of a PEG molecule bound to Lys553, a residue which would usually coordinate with Glu571 to help stabilize the activation loop (Lys553 is not shown in Figure 7 for clarity).
TTK was purified and crystallized as described previously.[26] Plasmids for expression of TTK were received from Stefan Knapp, Structural Genomics Consortium, Oxford, U.K. TTK kinase domain (residues 519–808) was expressed in E. coli BL21 AI competent cells (Invitrogen, Life Technologies Ltd., Paisley, U.K.). Cells were cultured in LB media containing kanamycin selection antibiotic and induced with 0.5 mM IPTG and 1g/L L-arabinose at an OD280 of 0.7. Cells were then incubated overnight at 18 °C with shaking at 225 rpm. Cells were harvested and resuspended in lysis buffer containing 50 mM HEPES pH 7.5, 500 mM NaCl, 10 mM imidazole, 5% (v/v) glycerol, lysozyme, and 1 Roche EDTA free complete protease inhibitor cocktail tablet (Roche, Basel, Switzerland) per 3 L of buffer. TTK was purified using Ni–NTA nickel affinity resin and washed in buffer containing 30 mM imidazole. TTK was then eluted from the resin with 250 mM imidazole. Eluate was concentrated using a Vivaspin concentrator with a 30 kDa molecular weight cutoff (GE Healthcare, Chalfont St. Giles, U.K.) and further purified on gel filtration column Superdex 200 16/60 (GE Healthcare, Chalfont St. Giles, U.K.) equilibrated in buffer containing 10 mM HEPES pH 7.5, 150 mM NaCl, 5 mM DTT, and 5 mM EDTA. The sample was concentrated to a final concentration of 8.9 mg/mL, snap frozen on dry ice, and stored at −80 °C until required.
Purified TTK was crystallized at 18 °C using the sitting drop vapor diffusion method with drops composed of 2 μL protein (8.9 mg/mL) and 2 μL reservoir solution placed over 200 μL reservoir solution of H2O/PEG300 (30–45% (v/v)) in 48 well plates. […]

Experiment [2] concerns the target T2, GST-tagged recombinant human full-length TTK protein kinase (Homo sapiens, UniProt P33981).
T2 construct: GST-tagged recombinant human full-length TTK protein kinase; purchased Invitrogen (Life Technologies Ltd., Paisley, U.K.)
T2 sequence (P33981 1-857): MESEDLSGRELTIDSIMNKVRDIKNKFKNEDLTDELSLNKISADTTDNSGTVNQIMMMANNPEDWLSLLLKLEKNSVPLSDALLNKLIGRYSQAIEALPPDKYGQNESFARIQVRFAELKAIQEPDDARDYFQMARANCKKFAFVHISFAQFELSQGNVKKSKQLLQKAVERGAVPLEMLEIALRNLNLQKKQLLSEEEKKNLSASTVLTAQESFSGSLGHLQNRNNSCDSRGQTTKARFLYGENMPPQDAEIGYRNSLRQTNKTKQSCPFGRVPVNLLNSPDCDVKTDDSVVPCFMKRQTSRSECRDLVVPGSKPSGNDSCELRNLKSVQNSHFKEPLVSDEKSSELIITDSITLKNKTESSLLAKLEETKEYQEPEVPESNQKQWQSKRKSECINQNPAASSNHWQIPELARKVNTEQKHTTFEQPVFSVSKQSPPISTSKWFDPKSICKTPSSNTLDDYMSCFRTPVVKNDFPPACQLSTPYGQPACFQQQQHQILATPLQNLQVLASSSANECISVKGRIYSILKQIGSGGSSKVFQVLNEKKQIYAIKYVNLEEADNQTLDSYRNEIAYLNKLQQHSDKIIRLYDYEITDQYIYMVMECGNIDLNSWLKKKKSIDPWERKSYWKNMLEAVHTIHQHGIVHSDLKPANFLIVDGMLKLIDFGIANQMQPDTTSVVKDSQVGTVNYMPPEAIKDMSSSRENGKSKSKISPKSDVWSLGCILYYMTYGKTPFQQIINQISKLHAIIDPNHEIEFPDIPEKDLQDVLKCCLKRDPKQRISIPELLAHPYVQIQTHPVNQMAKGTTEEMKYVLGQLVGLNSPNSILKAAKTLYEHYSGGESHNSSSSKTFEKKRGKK
In words: TTK mobility shift microfluidics assay, IC50 determination (3 nM TTK). Type of experiment: biochemical. Conditions: for IC50: 3 nM TTK, 10 μM ATP, duplicate on the same plate; for LE (ligand efficiency): from TTK IC50.

For experiment [3], the target named is T2, GST-tagged recombinant human full-length TTK protein kinase. As to the kind of experiment: TTK mobility shift microfluidics assay, single-concentration percent inhibition screen. Type of experiment: biochemical. Conditions: 12.5 nM TTK, 10 μM ATP, mean of duplicate ± SD; for inhibition at 40 µM: compound at 40 μM, 1% DMSO; for inhibition at 400 µM: compound at 400 μM (fragment-like, MW < 300 Da). Here is the method: The TTK kinase activity was measured in a mobility shift microfluidics assay with the Caliper LabChip EZReader II (Caliper Life Sciences, Hopkinton, MA, U.S.A.). For the initial percent inhibition compound screen, all compounds were tested at 40 μM, and fragment-like compounds (MW < 300 Da) were also tested at 400 μM. A 2.14 μM stock of GST-tagged recombinant human full-length TTK protein kinase from Invitrogen (Invitrogen, Life Technologies Ltd., Paisley, U.K.) and custom synthesized peptide from Pepceuticals (Pepceuticals Ltd., Enderby, U.K.) with sequence 5-FAM-[…]-amide were used. […] For every 10 mL of stock buffer, one Roche EDTA free complete mini-protease inhibitor cocktail tablet (Roche, Basel, Switzerland) was added. TTK was used at a final concentration of 12.5 nM. The assay plate was sealed and incubated at room temperature for 60 min. The assay was stopped by addition of stop buffer which contained 100 mM HEPES (pH 7.3), 20 mM EDTA, and 0.05% (v/v) Brij-35. The assay plate was then analyzed using the EZReader II. Z′ for compounds at 40 μM was 0.48, and Z′ for compounds at 400 μM was 0.61.

With `Nc1nnc2c([nH]c3ccccc32)c1-c1ccccc1` [Compound 2], in experiment [1], the “binding in ATP binding site of soaked TTK crystals (electron density)” value is recorded as “not bound”. Besides, the IC50 – broadly, the concentration that inhibits the measured activity by half – in experiment [2] (1% DMSO) was 53 µM. Further, in experiment [2], the “LE (ligand efficiency)” value is recorded as 0.29. Also, in experiment [3], the inhibition (as a rule, the share of the control response that was lost under treatment) at 40 µM worked out at 52 ± 1.41% and the inhibition at 400 µM was 56 ± 1.41%.
Taken in the same sequence, the figures for `c1ccc(-c2nc3cnccc3[nH]2)nc1` [Compound 6] were “not bound”, 91.5 µM, 0.37, 21.5 ± 2.12% and 66%.
The matching figures for `COc1ccc2c(c1)[nH]c1c(C)nccc12` [Compound 8, harmine]: “not bound”, 160 µM, 0.32, 19% and 65 ± 1.41%.
Take `Cc1ccc2[nH]c3c(N4CCCCC4)ncnc3c2c1` [Compound 9]: in experiment [1], the “binding in ATP binding site of soaked TTK crystals (electron density)” value is listed as “not bound”. For the same compound, the concentration for half-maximal inhibition (IC50) in experiment [2] (10% DMSO (asterisk)) is 246 µM. Besides, the “LE (ligand efficiency)” value in experiment [2] was found to be 0.25. Moreover, in experiment [3], the inhibition at 40 µM was found to be 68 ± 1.41% and the inhibition at 400 µM stood at 55.5 ± 2.12%.

Values taken from publication PMC3665241, “Scaffold-Focused Virtual Screening: Prospective Application to the Discovery of TTK Inhibitors” (Journal of Chemical Information and Modeling, 2013).
